According to PubChem BioAssay AID2060343 (Molecular Pharmacology Branch, DTP, NCI, 2025):
pIC50: −log10 of the molar value.

Tested on: 138582-337-R-J1-PDC spheroids with HUVEC/MSC, viability
Test: Anticancer human tumor 138582-337-R-J1-PDC patient-derived Merkel cell tumor cell line growth inhibition [IpAb]
Conditions: for pIC50: curve of first compound; for viability, T/C: stronger effect = lower value
Outline: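 Spheroids of 60% malignant cells, 25% HUVEC and 15% MSC were exposed to targeted agents combined with ipatasertib or abemaciclib. Doses started at or near clinical Cmax (10 microM when unknown) and fell in half-log steps.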

[1] = second compound 0.01 µM, first compound 0.0316 µM
[2] = second compound 0.01 µM, first compound 0.1 µM
[3] = second compound 0.01 µM, first compound 0.316 µM
[4] = second compound 0.01 µM, first compound 1 µM
[5] = second compound 0.01 µM, first compound 3.16 µM
[6] = second compound 0.01 µM, first compound 10 µM
[7] = second compound 0.0316 µM, first compound 0.0316 µM
[8] = second compound 0.0316 µM, first compound 0.1 µM
[9] = second compound 0.0316 µM, first compound 0.316 µM
[10] = second compound 0.0316 µM, first compound 1 µM
[11] = second compound 0.0316 µM, first compound 3.16 µM
[12] = second compound 0.0316 µM, first compound 10 µM
[13] = second compound 0.1 µM, first compound 0.0316 µM
[14] = second compound 0.1 µM, first compound 0.1 µM
[15] = second compound 0.1 µM, first compound 0.316 µM
[16] = second compound 0.1 µM, first compound 1 µM
[17] = second compound 0.1 µM, first compound 3.16 µM
[18] = second compound 0.1 µM, first compound 10 µM
[19] = second compound 0.316 µM, first compound 0.0316 µM
[20] = second compound 0.316 µM, first compound 0.1 µM
[21] = second compound 0.316 µM, first compound 0.316 µM
[22] = second compound 0.316 µM, first compound 1 µM
[23] = second compound 0.316 µM, first compound 3.16 µM
[24] = second compound 0.316 µM, first compound 10 µM
[25] = second compound 1 µM, first compound 0.0316 µM
[26] = second compound 1 µM, first compound 0.1 µM
[27] = second compound 1 µM, first compound 0.316 µM
[28] = second compound 1 µM, first compound 1 µM
[29] = second compound 1 µM, first compound 3.16 µM
[30] = second compound 1 µM, first compound 10 µM
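Further: spheroids exposed to compounds for seven days.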
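Wherever viability, T/C is given: 100% = DMSO vehicle control viability.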

Compound | pIC50 (second compound 0.01 µM) | pIC50 (second compound 0.0316 µM) | pIC50 (second compound 0.1 µM) | pIC50 (second compound 0.316 µM) | pIC50 (second compound 1 µM) | viability, T/C [1] [%] | viability, T/C [2] [%] | viability, T/C [3] [%] | viability, T/C [4] [%] | viability, T/C [5] [%] | viability, T/C [6] [%] | viability, T/C [7] [%] | viability, T/C [8] [%] | viability, T/C [9] [%] | viability, T/C [13] [%] | viability, T/C [14] [%] | viability, T/C [19] [%] | viability, T/C [20] [%] | viability, T/C [25] [%] | viability, T/C [26] [%] | also measured
C=CC(=O)N1CCN(c2nc(=O)n(-c3c(C)ccnc3C(C)C)c3nc(-c4c(O)cccc4F)c(F)cc23)C(C)C1 (stereo not given) + CCN1CCN(Cc2ccc(Nc3ncc(F)c(-c4cc(F)c5nc(C)n(C(C)C)c5c4)n3)nc2)CC1 | < 5.00 | < 5.00 | < 5.00 | < 5.00 | < 5.00 | 107 | 107 | 121 | 121 | 143 | 176 | 98.7 | 95.7 | 90.7 | 83.7 | 90.6 | 94.8 | 94.3 | 104 | 96.8 | viability, T/C [10]: 116%; viability, T/C [11]: 125%; viability, T/C [12]: 186%; viability, T/C [15]: 104%; viability, T/C [16]: 119%; viability, T/C [17]: 139%; viability, T/C [18]: 218%; viability, T/C [21]: 92.8%; viability, T/C [22]: 105%; viability, T/C [23]: 144%; viability, T/C [24]: 229%; viability, T/C [27]: 111%; viability, T/C [28]: 118%; viability, T/C [29]: 135%; viability, T/C [30]: 282%
Cn1ncc(Cl)c1-c1cc(C(=O)NC(CN)Cc2cccc(F)c2)sc1Cl (stereo not given) + CCN1CCN(Cc2ccc(Nc3ncc(F)c(-c4cc(F)c5nc(C)n(C(C)C)c5c4)n3)nc2)CC1 | 5.82 | 5.90 | 5.92 | 5.92 | 6.10 | 88.8 | 73.4 | 61.9 | 50.3 | 50.6 | 0.19 | 83.8 | 70.8 | 58.5 | 84.4 | 84.6 | 92.8 | 81.8 | 94.2 | 95.3 | viability, T/C [10]: 50.2%; viability, T/C [11]: 45.4%; viability, T/C [12]: 0.24%; viability, T/C [15]: 61.1%; viability, T/C [16]: 48.9%; viability, T/C [17]: 40.7%; viability, T/C [18]: 0.17%; viability, T/C [21]: 68%; viability, T/C [22]: 52.1%; viability, T/C [23]: 35.3%; viability, T/C [24]: 0.21%; viability, T/C [27]: 70.3%; viability, T/C [28]: 39.9%; viability, T/C [29]: 25.1%; viability, T/C [30]: 0.27%
Cn1ncnc1[C@H]1c2n[nH]c(=O)c3cc(F)cc(c23)N[C@@H]1c1ccc(F)cc1 + CCN1CCN(Cc2ccc(Nc3ncc(F)c(-c4cc(F)c5nc(C)n(C(C)C)c5c4)n3)nc2)CC1 | < 7.00 | < 7.00 | < 7.00 | < 7.00 | < 7.00 | 78.5 | 78.9 | – | – | – | – | 69.8 | 66.2 | – | 90.8 | 86.4 | 78.3 | 72.4 | 90.9 | 91.2 | viability, T/C (second compound 0.01 µM, first compound 0.000316 µM): 102%; viability, T/C (second compound 0.01 µM, first compound 0.001 µM): 93.4%; viability, T/C (second compound 0.01 µM, first compound 0.00316 µM): 91.8%; viability, T/C (second compound 0.01 µM, first compound 0.01 µM): 80.7%; viability, T/C (second compound 0.0316 µM, first compound 0.000316 µM): 96.3%; viability, T/C (second compound 0.0316 µM, first compound 0.001 µM): 102%; viability, T/C (second compound 0.0316 µM, first compound 0.00316 µM): 89.5%; viability, T/C (second compound 0.0316 µM, first compound 0.01 µM): 76.5%; viability, T/C (second compound 0.1 µM, first compound 0.000316 µM): 89.7%; viability, T/C (second compound 0.1 µM, first compound 0.001 µM): 89.4%; viability, T/C (second compound 0.1 µM, first compound 0.00316 µM): 76.7%; viability, T/C (second compound 0.1 µM, first compound 0.01 µM): 78.4%; viability, T/C (second compound 0.316 µM, first compound 0.000316 µM): 85%; viability, T/C (second compound 0.316 µM, first compound 0.001 µM): 95.8%; viability, T/C (second compound 0.316 µM, first compound 0.00316 µM): 87.2%; viability, T/C (second compound 0.316 µM, first compound 0.01 µM): 80.3%; viability, T/C (second compound 1 µM, first compound 0.000316 µM): 99%; viability, T/C (second compound 1 µM, first compound 0.001 µM): 95.7%; viability, T/C (second compound 1 µM, first compound 0.00316 µM): 87.3%; viability, T/C (second compound 1 µM, first compound 0.01 µM): 79.5%
